Data: US6124308A, “Optically active phenyl pyrimidine derivatives as analgesic agent” (priority 1995, dated 2000)
Like-named read-outs stand apart in the source and are kept apart here.

Experiments:
[1] = test system: whole-cell sodium currents in cultured rat hippocampal neurones; assay: Whole-cell sodium currents in cultured embryonic rat hippocampal neurones, patch-clamp; type: cell-based; conditions: for IC50: 20 msec pulses to -10 mV from holding potential -60 mV, read-out: IC50 (reduction of peak sodium current); for reduction of peak sodium current: holding potential -60 mV
Description: (b) Cultured embryonic rat hippocampal neurones
Sodium currents were elicited by the application of 20 msec dipolarisng pulses, thereby lowering membrane potential to -10 mV from a holding potential of -60 mV.

[2] = test system: PGE2-induced acute hyperalgesia; assay: Effects on the development of PGE2-induced acute hyperalgesia (paw pressure); type: in vivo, rat; conditions: 1 h before PGE2 (100 ng), n=5
Description: Effects on the development of PGE2 -induced acute hyperalgesia
Reaction times to paw pressure were measured 3 h after PGE2 injection. Ataxia was scored at the same time by observation of the rats placed in an arena.

[3] = test system: hind-limb extension (maximal electroshock seizure); assay: Maximal electroshock test, rats, i.p., duration of action; type: in vivo, rat; conditions: for ED50: Rattus norvegicus, ip, read-out: ED50 (95% limits)
[4] = test system: maximal electroshock seizure; assay: Maximal electroshock test, rats, i.v., stronger current (200 mA); type: in vivo; conditions: Rattus norvegicus, iv, 1 h
Description: A stronger current (200 mA) was used compared with that (20 mA) used in the other procedures.

[5] = test system: veratrine-evoked glutamate release from rat brain slices; assay: Inhibition of veratrine-evoked glutamate release; type: cell-based
[6] = test system: maximal electroshock seizure; assay: Maximal electroshock test, mice, different routes of administration; type: in vivo, mouse; conditions: for ED50: Mus musculus, mice, 1 hour, read-out: ED50 (95% limits)
[7] = target: T1, rat type IIA sodium channels (Rattus norvegicus, UniProt P04775); assay: Recombinant rat type IIA sodium channels in chinese hamster ovary cells, whole-cell recording; type: cell-based; conditions: for inhibition of Na+ currents: R(-)enantiomer 1-500 μM
T1 construct: no beta subunit mentioned
Description: The IC50 's at two different holding potentials (Vh) were as follows: […]

[8] = test system: native channels in cultured rat striatal neurones (Na+ currents); assay: Native sodium channels in cultured rat striatal neurones, whole-cell recording; type: cell-based
Description: The action of the R(-)enantiomer on native channels in cultured rat striatal neurones was studied using whole-cell recording techniques.

[9] = test system: electrical activity of the external oblique muscle (egg albumin sensitised rats); assay: Irritable bowel syndrome model: colorectal distension in egg albumin sensitised rats; type: in vivo, rat; conditions: 10 mg/kg p.o., 60 minutes before pressure response curve
Description: Male Listar hooded rats weight range 100-150 g were used.
The rats were sensitised by dosing ip (1 ml per rat) with a solution containing egg albumin, (10 ug/ml) pertusssis vaccine (1 mg/ml) and aluminium hydroxide (10 mg/ml). Control animals received saline.
Seven days later the rats were anaesthetised using isofurane and the external oblique muscle exposed. Two nichrome wires were implanted into the muscles and the wires exteriorised to the back of the neck, the skin was sutured and the animals were allowed to recover.
Six days later the animals were fasted overnight. On the following day the animals were anaesthetised and the colorectum washed out using saline. A 4 cm long latex balloon tied to a portex cannula was connected to an inflation device, and the nichrome electrodes at the back of the neck were connected to head stage.
The electrical activity of the external oblique muscle was recorded by a data capture system (`spike2`) which calculated the number of electrical spikes. Sequential pressure response curves (10-100 mmHg) in sensitised and the control animals were constructed. The balloon was inflated for 1 min at each pressure, followed by a rest period of 5 min.
The mean number of spikes at each pressure was calculated for the control animals, sensitised animals and sensitised animals treated with the R(-) enantiomer. […]

rat liver DHFR = target: T2, rat liver DHFR (Rattus norvegicus, UniProt Q920D2); assay: Activity against dihydrofolate reductase (DHFR), spectrophotometric assay; type: biochemical
T2 construct: rat liver DHFR; from tissue; host or cells: rat liver
T2 sequence (Q920D2 1-187): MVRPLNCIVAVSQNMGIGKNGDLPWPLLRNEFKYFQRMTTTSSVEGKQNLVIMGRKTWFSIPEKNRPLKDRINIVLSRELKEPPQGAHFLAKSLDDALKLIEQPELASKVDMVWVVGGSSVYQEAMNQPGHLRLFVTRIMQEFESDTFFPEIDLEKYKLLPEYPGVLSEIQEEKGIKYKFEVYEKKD

[10] = test system: striatal dopamine in MPTP injected C57B1/6 mice; assay: MPTP induced neurotoxic model, striatal dopamine levels; type: in vivo, mouse
Description: Six-week old male C57B1/6 mice (Japan SLC Co., Hamamatu) were housed ten per case in a temperature-controlled room under a 12-hours light/12-hours dark cycle with free access to food and water.
Mice received i.p. injections of the R(-) enantiomer and the S(+) enantiomer (30 mg/kg) in olive oil starting 12 hours before MPTP injection and every 12 hours for the next 5-injections. Control mice received olive oil only.
Mice receive s.c. injection of MPTP-HCl (40 mg of free base per kg; Research Biochemicals) in saline. Control mice received saline only.
HPLC with electrochemical detection was used to measure striatal levels of dopamine (J.C. Garcia': Journal of Chromatography B. 656 (1994) 77-80).
Seven days after the MPTP injection, mice ([…]) were killed and striata were dissected out, immediately frozen, and stored at -80° C. until analysis. On the day of the assay, tissue samples were sonicated in 10 vol(wt/vol) of 0.1M perchloric acid /1.9 mM sodium hydrogen sulfite containing 1.6μg/ml 3,4-dihydroxybenzylamine hydrobromide(Sigma) as an internal standard. After centrifugation (2,800× g for 10 min at room temperature) and filtration (0.5 μm; Millipore membrane filter), 10 μl of supernatant was injected onto an Inertsil ODS3 column (4.6×250 mm; GL Science, Tokyo). The mobile phase consisted of 88% 115 mM NaH2 PO4 /0.178 mM Na2 EDTA /0.92 mM 1-octanesulfonic acid (pH=2.6) solution and 12% ethanol. F low rate was 1.0 ml/min. Peaks were detected by a Shimazu electrochemical detector LECD-6A(700 mV).

[11] = test system: established PGE2-induced acute hyperalgesia; assay: Effects on established PGE2-induced acute hyperalgesia (paw pressure); type: in vivo; conditions: Rattus norvegicus, po, 2 h after PGE2 (100 ng); read-out: analgesia ED50 and 95% confidence limits
Description: Effects on established PGE2 -induced acute hyperalgesia
The R(-)enantiomer was given orally 2 h after subplantar injection of PGE2 (100 ng) when the hyperalgesia was established. Reaction time to paw pressure was measured 3 h after the PGE2 administration.

Half-life in male rats = type: in vivo, rat; conditions: rat, in vivo, read-out: half-life (t1/2) (converted)

T1 sequence (P04775 whole entry): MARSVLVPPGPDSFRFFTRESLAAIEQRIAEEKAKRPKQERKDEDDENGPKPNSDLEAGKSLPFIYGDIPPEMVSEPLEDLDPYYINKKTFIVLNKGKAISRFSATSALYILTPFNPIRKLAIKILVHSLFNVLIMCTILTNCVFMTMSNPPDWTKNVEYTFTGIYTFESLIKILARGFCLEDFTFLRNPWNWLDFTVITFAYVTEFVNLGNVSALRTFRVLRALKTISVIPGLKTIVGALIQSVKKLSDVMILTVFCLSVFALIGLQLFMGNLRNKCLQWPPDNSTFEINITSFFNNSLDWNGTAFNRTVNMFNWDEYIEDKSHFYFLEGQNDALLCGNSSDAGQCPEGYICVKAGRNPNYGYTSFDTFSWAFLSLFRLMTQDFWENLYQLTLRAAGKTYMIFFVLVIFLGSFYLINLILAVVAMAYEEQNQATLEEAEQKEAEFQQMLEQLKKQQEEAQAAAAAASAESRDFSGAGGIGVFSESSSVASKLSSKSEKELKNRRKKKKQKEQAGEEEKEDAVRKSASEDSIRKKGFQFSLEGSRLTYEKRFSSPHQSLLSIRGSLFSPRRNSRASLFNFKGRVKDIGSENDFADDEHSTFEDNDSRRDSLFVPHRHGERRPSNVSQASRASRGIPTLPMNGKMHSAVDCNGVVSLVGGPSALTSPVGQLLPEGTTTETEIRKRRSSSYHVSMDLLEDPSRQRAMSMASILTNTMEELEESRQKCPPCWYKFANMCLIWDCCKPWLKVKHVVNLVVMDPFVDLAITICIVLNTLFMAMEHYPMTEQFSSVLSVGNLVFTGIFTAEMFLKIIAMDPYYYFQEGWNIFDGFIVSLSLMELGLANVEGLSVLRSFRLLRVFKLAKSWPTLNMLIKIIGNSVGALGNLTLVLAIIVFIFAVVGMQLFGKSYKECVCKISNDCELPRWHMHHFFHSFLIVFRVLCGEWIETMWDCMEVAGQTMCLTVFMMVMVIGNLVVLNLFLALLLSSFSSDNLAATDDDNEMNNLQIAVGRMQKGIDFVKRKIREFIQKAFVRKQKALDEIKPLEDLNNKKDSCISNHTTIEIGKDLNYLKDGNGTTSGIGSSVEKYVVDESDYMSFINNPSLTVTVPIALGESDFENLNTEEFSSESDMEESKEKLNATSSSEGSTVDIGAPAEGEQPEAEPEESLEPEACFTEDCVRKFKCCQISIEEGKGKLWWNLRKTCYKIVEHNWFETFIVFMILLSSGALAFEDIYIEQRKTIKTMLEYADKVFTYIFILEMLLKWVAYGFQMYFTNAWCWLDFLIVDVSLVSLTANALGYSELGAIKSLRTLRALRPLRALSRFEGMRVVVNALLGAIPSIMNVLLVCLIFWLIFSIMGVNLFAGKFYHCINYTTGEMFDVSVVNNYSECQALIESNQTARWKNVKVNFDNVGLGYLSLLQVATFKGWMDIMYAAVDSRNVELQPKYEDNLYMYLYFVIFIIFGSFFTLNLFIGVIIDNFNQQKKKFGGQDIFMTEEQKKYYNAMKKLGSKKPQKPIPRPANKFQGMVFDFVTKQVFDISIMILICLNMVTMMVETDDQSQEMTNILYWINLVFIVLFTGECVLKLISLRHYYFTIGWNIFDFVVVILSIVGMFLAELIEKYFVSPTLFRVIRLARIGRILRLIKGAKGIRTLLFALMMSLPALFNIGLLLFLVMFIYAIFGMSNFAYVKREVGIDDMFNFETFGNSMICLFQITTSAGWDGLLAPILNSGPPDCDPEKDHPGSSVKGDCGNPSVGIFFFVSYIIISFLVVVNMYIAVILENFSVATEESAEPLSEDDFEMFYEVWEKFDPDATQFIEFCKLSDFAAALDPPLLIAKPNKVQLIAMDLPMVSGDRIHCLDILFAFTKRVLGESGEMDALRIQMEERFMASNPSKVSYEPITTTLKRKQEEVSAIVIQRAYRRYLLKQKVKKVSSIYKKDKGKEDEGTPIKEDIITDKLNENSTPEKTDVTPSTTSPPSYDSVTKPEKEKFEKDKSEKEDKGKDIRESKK

Question: Which IC50 ([1]; Rattus norvegicus, Hippocampal neurone) does the source give for Nc1nnc(-c2cccc(Cl)c2Cl)c(N)n1 [Lamotrigine, 3,5-diamino-6-(2,3-dichlorophenyl)-1,2,4-triazine, reference compound] here?
Answer: 16 µM

Question: And the “reduction of peak sodium current” value [1]?
Answer: concentration-dependent reduction of peak sodium current

Question: What about the ED50 ([2]; Rattus norvegicus, po, read-out: Analgesia ED50 (95% limits)) of the same compound?
Answer: 34.8 mg/kg

Question: What about the ED50 ([3]; rats, 0.5 hours) of the same compound?
Answer: 2.7 mg/kg

Question: And the ED50 ([3]; rats, 1 hour)?
Answer: 3.3 mg/kg

Question: And the ED50 ([3]; rats, 2 hours)?
Answer: 2.7 mg/kg

Question: And the ED50 ([3]; rats, 4 hours)?
Answer: 2.3 mg/kg

Question: What about the ED50 ([3]; rats, 8 hours) of the same compound?
Answer: 4.8 mg/kg

Question: What about the ED50 ([3]; rats, 24 hours) of the same compound?
Answer: 7.1 mg/kg

Question: What about the ED50 [4] of the same compound?
Answer: 2.5 mg/kg

Question: And the IC50 ([5]; Rattus norvegicus)?
Answer: 21 µM

Question: And the ED50 ([6]; ip, i.p.)?
Answer: 2.3 mg/kg

Question: And the ED50 ([6]; po, p.o.)?
Answer: 3.3 mg/kg

Question: And the ED50 ([6]; sc, s.c.)?
Answer: 1.8 mg/kg

Question: And the IC50 ([7]; IC50 (inhibition of Na+ currents), Vh = -60 mV)?
Answer: 98 µM

Question: What about the IC50 ([7]; IC50 (inhibition of Na+ currents), Vh = -90 mV) of the same compound?
Answer: 413 µM

Question: What about the “inhibition of Na+ currents” value [7] of the same compound?
Answer: inhibition of Na^+ currents in a concentration-dependent and voltage-dependent manner

Question: Which results are given for Nc1nc(N)c(-c2cccc(Cl)c2Cl)c(CF)n1 [R(-)enantiomer, R(-)-2,4-diamino-5-(2,3-dichlorophenyl)-6-fluoromethyl pyrimidine]?
Answer: IC50 [1]: 4 µM; reduction of peak sodium current [1]: concentration-dependent reduction of peak sodium current; Analgesia ED50 (95% limits) ([2]; p.o.): 2.5 (2.2-2.9) mg/kg; inhibition of Na+ currents [8]: concentration- and voltage-dependent inhibition of Na^+ currents; inhibition by 10-30 μM on hyperpolarising the cells ([8]; 10-30 μM, Vh = -120 mV): virtually eliminated; IC50 ([8]; Rattus norvegicus, holding potential (Vh) of 60 mV, read-out: IC50 (inhibition of Na+ currents)): ~8 µM; potency at Vh = -90 mV compared with IC50 at 60 mV ([8]; Vh = -90 mV): much lower potency; reversal of the changes induced by egg albumin [9]: complete reversal; ED50 ([3]; 8 h, i.p., rats, 8 hours): 5.9 mg/kg; ED50 ([3]; 24 h, i.p., rats, 24 hours): 12.9 mg/kg; times more active than its S(=)enantiomer ([3]; anticonvulsant, rats, i.p.): 15-20 times; times more active than lamotrigine ([3]; anticonvulsant, rats, i.p.): 2-3 times; ED50 at 2 hrs (isethionate salt versus base) ([3]; i.p., 2 hrs, calculated as the base, p<0.05, listed as R(-) enantiomer base, 120 min): 2.5 mg/kg; ED50 (95% limits) ([3]; i.p., rats, 0.5 hours, 30 min): 1.3 (0.9-1.9) mg/kg; ED50 (95% limits) ([3]; i.p., rats, 1 hour, 60 min): 1.0 (0.7-1.5) mg/kg; ED50 (95% limits) ([3]; i.p., rats, 2 hours, 120 min): 1.2 (0.8-1.7) mg/kg; ED50 (95% limits) ([3]; i.p., rats, 4 hours, 240 min): 2.3 (1.6-3.4) mg/kg; duration of action ([3]; maximal electroshock): long duration of action; inhibition at 100 µM (rat liver DHFR): 25%; inhibition of veratrine-evoked glutamate release ([5]; at 10 μM): 64%; ED50 ([6]; ip, i.p.): 1.3 mg/kg; ED50 ([6]; po, p.o.): 1.2 mg/kg; ED50 ([6]; sc, s.c.): 0.96 mg/kg; times more potent than lamotrigine in the maximal electroshock test ([6]; in rats and mice): 2-3 times; activity by the various routes tested ([6]; maximal electroshock, rats and mice): approximately equiactive by the various routes tested; % protection ([10]; 30 mg/kg i.p. 6 times, MPTP 40 mg/kg s.c.): 81.0%; Dopamine content in the striatum ([10]; 30 mg/kg i.p. 6 times, MPTP 40 mg/kg s.c., day 7): 12.45 ± 1.18 μg/g wet tissue; % mortality ([10]; 30 mg/kg i.p., day -1 to 7): 0%; inhibition of Na+ currents [7]: inhibition of Na^+ currents in a concentration-dependent and voltage-dependent manner; IC50 ([7]; Vh = -60 mV, read-out: IC50 (inhibition of Na+ currents)): 18 µM; IC50 ([7]; Vh = -90 mV, read-out: IC50 (inhibition of Na+ currents)): 160 µM; ED50 [11]: 3.4 mg/kg; half-life (Half-life in male rats): 5.4 h
